How the values were obtained:
[1] = system: T1, wild-type (GRR) human STING cGAMP binding domain (residues 155-341); experiment: Differential Scanning Fluorimetry (DSF), stability of STING protein against thermal denaturation; conditions: 100 uM compound, 3 uM target protein
T1 construct: His-TEV-hSTING (WT); TEV protease cleavage site (N); made in house; host or cells: E. coli BL21 DE3
Method: Dye fluorescence is quenched in aqueous environment and increases upon association of the dye with the hydrophobic parts of the unfolding protein. […] The inflection point of the curve represents the “melting” temperature of the protein (Tm) which is calculated numerically using the Boltzmann equation.
Method: The thermal stability of the STING protein was measured using a specific expression construct of the cGAMP binding domain of wild-type (GRR) human STING comprising residues 155-341 and a N-terminal 8x His-tag in assay buffer containing 20 mM Tris, 150 mM NaCl at pH7.5.
The assay uses Hard-Shell®PCR Plates 384-Well CLR/WHT (Catalog #HSP3805, BIO-RAD), Microseal®‘B’ Adhesive Seals for PCR Plates (Catalog #MSB-1001, BIO-RAD) and was run on a CFX384 Real-Time System (Bio-Rad).
A DMSO stock solution of SYPRO orange (SIGMA S5692-500UL) was prepared.
Compound stock solutions (10 mM in DMSO) were diluted 1:2 in DMSO to an intermediate compound concentration of 5 mM and then further diluted 1:40 in assay buffer resulting in a compound concentration of 125 μM and 2.5% DMSO.
Fluorescent dye stock solution (5000×SYPRO Orange) was then mixed with target protein and buffer to a concentration of 15 uM Protein and 25×SYPRO Orange. 2 ul of this protein-dye-mixture was added to 8 ul compound solution. Final volume was 10 uL. 3-6 well positions were used as negative control (protein with 2% DMSO). The plates were prepared for duplicate measurement and centrifuged for 2 min at 1000 g. In the measurement, 160 cycles of 0.5° C. were used (temperature ramp 15 s/cycle, 15° C. to 95° C.).
Final Assay concentrations for compound characterization were as follows:
100 uM compound, 3 uM target protein, 5×SYPRO Orange, 2% DMSO in 10 ul. All dispensing steps were performed using a HamiltonStar pipetting robot (Hamilton).
Dissociation curves were processed in Bio-Rad CFX Manager. Peak type was set to “negative”.
Compound codes for screen were assigned in the plate layout.
Two replicates of TM measurements were averaged, and the standard deviation was calculated. In cases of SD>1.5° C. the measurement was repeated.
The melting point (Tm) obtained for STING protein alone was subtracted from T obtained for protein incubated with ligand to generate ΔTm values.
Protein production and purification: The protein used for the biophysical experiments was a recombinant human STING protein comprising its cytosolic ectodomain. A codon optimized DNA sequence (for expression in Escherichia coli) encoding amino acid residues 155 to 341 (Swiss Prot Q86WV6) of human STING (WT) was synthesized by GeneArt (Regensburg, Germany) and inserted into a pET17b E. coli expression vector. The protein construct encodes an N-terminal 8× His-tag followed by tobacco etch virus protease (TEV) cleavage site and the above STING gene sequence. The resulting protein sequence for the used STING variant is listed below:
For expression of recombinant human STING above construct was transformed into E. coli BL21 DE3 strain and grown in shake flasks in LB-medium at 37° C. Expression was induced by addition of isopropyl β-D-1-thiogalactopyranoside to a final concentration of 1 mM and cultures shaken overnight. Cell pellets were centrifuged and stored at −70° C. until further use. Protein was purified by cell thawing in lysis buffer (20 mM TRIS-HCl, pH 8, 300 mM NaCl, 2 mM mercaptoethanol, 20 mM imidazole, Complete Protease Inhibitor (Roche) and DNase (Roche)), followed by metal affinity purification using Ni-NTA resins and elution buffer consisting of 20 mM TRIS-HCl, pH 8, 300 mM NaCl, 2 mM mercaptoethanol, 300 mM imidazole and size exclusion chromatography in running buffer (20 mM TRIS-HCl, pH 8, 100 mM NaCl, 2 mM DTT). The peak fraction was collected and concentrated to 2.5 mg/mL.

STING = system: T2, STING; experiment: Human whole blood assay (HWBA), cGAMP-stimulated IFNα2α production; assay type: cell-based; conditions: human whole blood stimulated by cGAMP
T2 construct: from tissue; host or cells: human whole blood from healthy donors
Method: For the detection of STING inhibition in physiological environment human whole blood was stimulated by the cyclic dinucleotide cGAMP. Pathway activity was monitored by measuring the IFNα2α production.
Assay method: Compounds were delivered as 10 mM DMSO solution and serial diluted and transferred to the 96-well Cell culture Plate (Corning #3595), prefilled with 20 μl OptiMEM (Gibco #11058-021) in each well, using an Echo acoustic dispenser. Typically, 8 concentrations were used with the highest concentration at 10 μM in the final assay volume followed by ^˜1:5 dilution steps. DMSO concentration was set to 0.1% in the final assay volume. The 96 well assay plate contained 9 test compounds, a reference compound and DMSO in control wells.
Collection of human whole blood from 3 or more healthy donors (male or female, no medication for 7 days, exception contraceptive and thyroxine) as Na-citrate blood (e.g. 3.8% in Monovettes from Sarstedt) is conducted in parallel. Whole blood was kept at room temperature for a maximum of 3 hours after collection until use in the assay.
160 μl of the whole blood samples were transferred to each well of the 96-well assay plates filled with compound/OptiMEM. All assay plates are prepared as duplicates with blood from different donors. Blood plates were kept at room temperature for 60 minutes and continuous shaking with 450 rpm, covered with the lid, but not sealed.
A 10× cGAMP assay solution was diluted from a 2 mM stock solution in 1×HBSS immediately before use at room temperature. 20 μl of the 10× cGAMP/HBSS were added to all compound and all high control wells, whereas HBSS only was added to all low control wells.
After covering assay plates with aera seals and the lid, blood plates were kept at room temperature for 30 minutes and continuous shaking with 450 rpm, followed by an overnight incubation of 22 h at 37° C. in the incubator, without shaking.
For the detection of IFNα-2α in human plasma, the biotinylated capture antibody (Antibody set IFNA2, Meso Scale Diagnostics #B21VH-3, including coating and capture antibody) was diluted 1:17.5 in Diluent 100 (Meso Scale Diagnostics #R50AA-4, according to the manufacturer. U-Plex MSD GOLD 96-well Small Spot Streptavidin SECTOR Plates (Meso Scale Diagnostics #L45SA-5) were coated with 25 μl diluted capture antibody. Coated plates were incubated for 60 min at room temperature under continuous shaking at 700 rpm. MSD IFNα-2α plates were washed three times with 150 μl wash buffer (1×HBSS, 0.05% Tween).
After blocking the plates with 100 μl block solution/well (1×HBSS with 0.2% Tween, 2% BSA) for 60 min at room temperature and continuous shaking at 700 rpm, plates were emptied as dry as possible by dumping just before continuing with the human plasma. Whole Blood assay plates were centrifuged at 1600 rpm for 10 minutes. 25 μl of supernatant was transferred with a pipetting robotics from each whole blood plate to the corresponding IFNα-2α plate. Plates were sealed with microplate seals and kept at room temperature again under continuous shaking at 700 rpm for two hours. Next MSD IFNα-2α plates were washed three times with 150 μl wash buffer (1×HBSS, 0.05% Tween), before adding 25 μl MSD SULFO-TAG IFNα-2α Antibody solution (1:100 diluted in Diluent 3 (Meso Scale Diagnostics #R50AP-2) to each well of the plates. Afterwards plates were sealed with microplate seals and kept at room temperature again under continuous shaking at 700 rpm for two hours. Finally, MSD IFNα-2α plates were washed three times with 150 μl wash buffer (1×HBSS, 0.05% Tween). 150 μl 2× Read buffer was added to each well and plates were immediately measured with the MSD Sector S600 Reader using the vendor barcode.
Data evaluation and calculation: For data evaluation and calculation, % control calculation of each well was based on the mean of high (cGAMP stimulated control) and mean of low (unstimulated control) controls by using the following formula: […]

CNC(=O)c1ccc(-c2nc(-c3cccc4nn(-c5cn(C6CC6)nc5OC)cc34)c(C3CC3)n2C)c(OC(F)(F)F)c1 [Example 1, 4-{5-cyclopropyl-4-[2-(1-cyclopropyl-3-methoxy-1H-pyrazol-4-yl)-2H-indazol-4-yl]-1-methyl-1H-imidazol-2-yl}-N-methyl-3-(trifluoromethoxy)benzamide]
DSF ΔTm (K) [1]: 28 K
IC50 (STING): 82 nM

Cn1c(-c2ccc(P(C)(C)=O)cc2OC(F)(F)F)nc(-c2cccc3nn(-c4cc(C(F)(F)F)[nH]n4)cc23)c1C1CC1 [Example 21, 4-{5-cyclopropyl-2-[4-(dimethylphosphoryl)-2-(trifluoromethoxy)phenyl]-1-methylimidazol-4-yl}-2-[5-(trifluoromethyl)-1H-pyrazol-3-yl]indazole]
DSF ΔTm (K) [1]: 29 K
IC50 (STING): 130 nM

From patent publication US20250333398A1, “MONOARYL AND HETARYL SUBSTITUTED INDAZOLES AND BENZIMIDAZOLES AS STING ANTAGONISTS AND THE USE THEREOF AS MEDICAMENT” (Boehringer Ingelheim International GmbH, priority 2024, published 2025)
